Values quoted from earlier work, collected in US20020128208A1, “Nonpeptide agonists and antagonists of vasopressin receptors” (priority 2000, published 2002).

Target: V2, V1a or both receptor
Conditions: prior-art antagonists disclosed by other companies; receptor subtype and species not stated

**Q.** For `Cc1ccccc1C(=O)Nc1ccc(C(=O)N2CCCC(N(C)C)c3ccccc32)cc1` (stereo not shown) [OPC-31260], which Ki is on record?
**A.** 21.7 nM

**Q.** For `CC(C)(C)NC(=O)c1ccc(S(=O)(=O)N2C(=O)C3(CCC(OCCN4CCOCC4)CC3)c3ccccc32)cc1` (stereo not shown) [SR121463A], which Ki is on record?
**A.** 1.42 nM

**Q.** With `Cc1ccc(F)cc1C(=O)Nc1ccc(C(=O)N2Cc3cccn3Cc3ccccc32)c(Cl)c1` [VPA-985] as the compound, how does the Ki read?
**A.** 0.5 nM

**Q.** For `Cc1ccc(F)cc1C(=O)Nc1ccc(C(=O)N2Cc3cccn3Cc3ccccc32)c(Cl)c1` [YM35087], which Ki is on record?
**A.** 1.8 nM
